# Laboratory results from US10016382B2, “Method for decreasing skeletal muscle damage and/or oxidative stress in mammals” (LONZA INC., priority 2014, dated 2018).
# System: total antioxidant capacity (TAC)
# Assay: Serum total antioxidant capacity (TAC), Example 1
# Format: in vivo, dog
# Details: for Change in TAC, post-run minus pre-run: following 15 mile long run at 13 wk, mean ± SEM
# Method: Blood Analysis: Serum samples were taken at three different times from each dog during the 90 day period. The blood samples were collected as follows: 1.) just prior to scanning each dog for body composition at the beginning of the study, 2.) prior to the long run on the 13th week, and 3.) following the long run on the 13th week. The serum samples were analyzed for Phosphocreatine Kinase and Canine Myoglobin to determine the amount of muscle protein leakage that occurred following the long run and TBARS and Total Antioxidant Capacity (TAC) were determined to evaluate the antioxidant status of each of the test dogs during the exercise program. The final blood sample was taken 24 hr after the long run to obtain maximum protein leakage based on previous similar types of exercise research with human athletes. Biomarkers and Assay Methods: Blood was drawn from each dog using a serum separator tube at three different times during the 90 day period: 1.) just prior to scanning each dog for body composition at the beginning of the study, 2.) prior to the long run on the 13th week, and 3.) following the long run on the 13th week. The final blood sample was taken 24 hr after the long run to obtain maximum protein leakage based on previous similar types of exercise research with human athletes. Each time after the blood was drawn it was allowed to clot before being centrifuged for 15 min at 2000 g at 4° C. Serum was aliquoted into 1.5 mL microcentrifuge tubes and stored at −80° C. until assays were ran following the end of the study. Creatine kinase (CK) and canine myoglobin were measured to determine the amount of muscle protein leakage that occurred following the long run. Thiobarbituric acid reactive substances (TBARS) and total antioxidant capacity (TAC) were measured to evaluate the antioxidant status of each of the test dogs during the exercise program. Serum samples were analyzed for total antioxidant capacity (TAC) and thiobarbituric acid reactive substances (TBARS) using commercially available colorimetric kits supplied by Cayman Chemical Company (Ann Arbor, Mich.) per manufacturer instructions. Serum canine myoglobin levels were determined using a commercially available ELISA supplied by Innovate Research (Novi, Mich.) per manufacturer instructions. Creatine kinase activity was determined colorimetrically using a commercially available kit supplied by BioVision (San Francisco, Calif.).
smiles,measurement,setting,value
C[N+](C)(C)C[C@H](O)CC(=O)[O-] [L-carnitine],TAC Least Sq Mean,Baseline,0.1066 mM Trolox Equiv
same,TAC Least Sq Mean,"Baseline, F",0.1064 mM Trolox Equiv
same,TAC Least Sq Mean,"Baseline, M",0.1067 mM Trolox Equiv
same,"TAC, serum, Mean","Ex.1, 250 mg/d, Baseline, both sexes",0.107 mM Trolox Equiv
same,"TAC, serum, Mean","Ex.1, 250 mg/d, Baseline, females",0.106 mM Trolox Equiv
same,"TAC, serum, Mean","Ex.1, 250 mg/d, Baseline, males",0.107 mM Trolox Equiv
same,"TAC, serum, Mean","Ex.1, 250 mg/d, Post-run, both sexes",0.087 mM Trolox Equiv
same,"TAC, serum, Mean","Ex.1, 250 mg/d, Post-run, females",0.069 mM Trolox Equiv
same,"TAC, serum, Mean","Ex.1, 250 mg/d, Post-run, males",0.102 mM Trolox Equiv
same,"TAC, serum, Mean","Ex.1, 250 mg/d, Pre-run, both sexes",0.118 mM Trolox Equiv
same,"TAC, serum, Mean","Ex.1, 250 mg/d, Pre-run, females",0.106 mM Trolox Equiv
same,"TAC, serum, Mean","Ex.1, 250 mg/d, Pre-run, males",0.128 mM Trolox Equiv
same,Effect on TAC of the test dogs,"Ex.1, 250 mg/d, during the study, vs control",did not have a significant effect
same,"Change in TAC, post-run minus pre-run","Ex.1, 250 mg/d, both sexes",−0.03 ± 0.01 n = 20 mM Trolox Equiv
same,"Change in TAC, post-run minus pre-run","Ex.1, 250 mg/d, females",−0.04 ± 0.01 n = 9 mM Trolox Equiv
same,"Change in TAC, post-run minus pre-run","Ex.1, 250 mg/d, males",−0.03 ± 0.01 n = 11 mM Trolox Equiv
same,TAC Least Sq Mean,Post-run,0.08522 mM Trolox Equiv
same,TAC Least Sq Mean,"Post-run, F",0.06866 mM Trolox Equiv
same,TAC Least Sq Mean,"Post-run, M",0.1018 mM Trolox Equiv
same,TAC Least Sq Mean,Pre-run,0.1171 mM Trolox Equiv
same,TAC Least Sq Mean,"Pre-run, F",0.1063 mM Trolox Equiv
same,TAC Least Sq Mean,"Pre-run, M",0.128 mM Trolox Equiv
same,TAC Least Sq Mean,"Treatment * Sex, F",0.1064 mM Trolox Equiv
same,TAC Least Sq Mean,"Treatment * Sex, M",0.1067 mM Trolox Equiv
same,TAC Least Sq Mean,"Treatment level, all dogs",0.1066 mM Trolox Equiv
same,"Total Antioxidant capacity, mixed model Estimate, term Time[Post-run-Pre-run] * Treatment[L-carnitine]","serum, model term",−0.001428
same,"Total Antioxidant capacity, mixed model Estimate, term Time[Post-run-Pre-run] * Treatment[L-carnitine] * Sex[F]","serum, model term",−0.001227
same,"Total Antioxidant capacity, mixed model Estimate, term Time[Pre-run-Baseline] * Treatment[L-carnitine]","serum, model term",−0.00085
same,"Total Antioxidant capacity, mixed model Estimate, term Time[Pre-run-Baseline] * Treatment[L-carnitine] * Sex[F]","serum, model term",0.001958
same,"Total Antioxidant capacity, mixed model Estimate, term Treatment[L-carnitine]","serum, model term",0.001356
same,"Total Antioxidant capacity, mixed model Estimate, term Treatment[L-carnitine] * Sex[F]","serum, model term",0.001671
